Entries after “also recorded” stand apart in the source; their conditions may differ. Read-outs that look alike come from different tables or passages of the source. Marks after values point to notes of the source that are not given here.
How the values were obtained:
[1] = system: cisplatin-resistant ovarian (A2780cis) cancer cell line; assay: Phototoxicity / dark cytotoxicity, neutral red uptake assay, A2780cis; details: for PI (phototoxic index): ratio of cytotoxicity following irradiation (420 nm) vs. in the dark; for IC50: read-out: IC50 (phototoxicity), blue light 420 nm, 5 J cm^–2, TL03, filtered <400 nm
Procedure: (§1) The novel trans-di-(N-heterocyclic)imine dihydroxido diazido Pt^IV complexes Pt^IV complexes were evaluated against human ovarian (A2780), cisplatin-resistant ovarian (A2780cis) and oesophageal (OE19) cancer cell lines, and the previously reported compounds (FM165 and 3) were also evaluated for comparison. […]
(§2) Maintenance. Human ovarian carcinoma (A2780), cisplatin-resistant ovarian carcinoma (A2780CIS) and oesophageal adenocarcinoma (OE19) cells were maintained in RPMI medium containing 10% Foetal Calf Serum (FCS). Cell lines were obtained from the European Collection of Animal Cell Cultures (ECACC). Cells were maintained in antibiotic-free medium in a humidified atmosphere of 95% air: 5% CO2 and subcultured every 7-10 days. Mycoplasma checks were done using the Hoechst staining method. Cells were seeded into dishes the night before experiments at a density of 6 - 7×10^4 cells.cm-2.
(§3) Experiments were carried out in an adapted laboratory with ambient light levels kept below 1 lux […]
(§4) Irradiation. Cells were irradiated by a bank of TL03 light sources (λmax 420 nm), filtered to attenuate wavelengths below 400 nm. Irradiances, dosimetry and calibrations were traceable to the National […]
(§5) Cells were irradiated in stirred suspension. Sham irradiated cells were treated identically to the test cells but were covered during irradiation.
(§6) Treatment. Test compounds were prepared in Earle’s Balanced Salt Solution (EBSS) and filtered immediately before use. Photofrin was used as the positive control for visible light irradiation. The positive and negative controls were included on each plate in parallel with the complexes. Cell viability […]
(§7) Cells were treated for 1 h at 37 °C/5% CO2 with EBSS containing the test compound, and then irradiated with 5 J.cm-2 visible radiation.
(§8) Phototoxic Index and Wavelength-Dependence. The phototoxic Index (PI) was determined 24 h after irradiation using the neutral red uptake assay;14 following cell uptake the neutral red dye accumulates in lysosomes, the low pH in the lysosomal matrix of live cells causes the dye to becomes charged, allowing it to be retained in this organelle.15 The dye was then extracted from the cells upon solubilisation and quantified. Protocol: a stock solution of neutral red was prepared in water (4 mg. mL-1) and diluted 80-fold in the cell culture medium (RPMI). Prior to addition to the cells, the solution was heated to 37 °C and filtered (no. 1 Whatman paper). The growth medium was removed from the cells, the neutral red dye (100 μL) was added and the cells are incubated for 3 hours in the dark. Upon removal of the dye, the cells were rinsed with PBS (100 μL) and then the plates were shaken for 15 min with […] for solubilisation. The dye concentration was quantified by measuring the absorbance at […]. An IC50 value was determined and is defined as the concentration required to inhibit dye uptake by 50%. This was done using non-linear regression (Graphpad Prism). Goodness of fit was determined from the R2 values of the curves and 95% confidence intervals. All cell experiments were performed in triplicate and repeated independently a minimum of two times.

[2] = system: human ovarian (A2780) cancer cell line; assay: Phototoxicity / dark cytotoxicity, neutral red uptake assay, A2780; details: for PI (phototoxic index): ratio of cytotoxicity following irradiation (420 nm) vs. in the dark
Procedure: as §1
(§9) controller and 3 UVA lamps (Hitachi, λmax = 361 nm) or 6 Luzchem LZC-420 lamps (λmax = 420 nm) with no other sources of light filtration, or LED light sources (BASETech model no. SP-GU10 230V~50 Hz […]
as §2, §3
(§10) Irradiation. Cells were irradiated by a bank of TL03 light sources (λmax 420 nm), filtered to attenuate wavelengths below 400 nm. Irradiances, dosimetry and calibrations were traceable to the National Physical Laboratory.12 Monochromatic light irradiation of the sample was performed using equipment consisting of a 1600W xenon arc light source and a grating monochromator. The apparatus was set to irradiate monochromatic light at 365, 400, 430, 500 and 530 nm. Filters were used to eliminate second order diffraction of shorter wavelengths from the specified longer wavelength monochromatic light.13 Cells were irradiated in stirred suspension. Sham irradiated cells were treated identically to the test cells but were covered during irradiation.
as §6, §7, §8

[3] = type: physicochemical; details: water, 20 °C
[4] = Photodecomposition in H2O (loss of N3→Pt LMCT band) by UV-vis spectroscopy; type: physicochemical; details: 60 μM in H2O, blue light 463 nm, 57 mW cm^–2, UV-vis
Procedure: Solutions of the Pt^IV diazido complexes (60 μM, H2O) were irradiated with blue light (463 nm, 57 mW cm^–2). […] The data were fitted to y = y0 + Ae^Rox, with r^2 > 0.98 (Fig. 7).
Figure S2: Changes in UV-Vis spectra of the PtIV diazido complexes (60 μM in H2O) upon irradiation
Table S11. Decomposition half-lives of complexes (60 μM) when irradiated with blue (463 nm) light,
as measured by UV-Vis spectroscopy.
(1 picture or pasted object on this page, not shown here)

[5] = system: A2780, A2780cis and OE19 cancer cell lines; details: for IC50: read-out: IC50 in the absence of irradiation, dark, non-toxic defined as IC50 > 200 μM; for Dark toxicity: absence of irradiation, cell lines investigated
Procedure: as §1, §2, §3, §4, §5, §6, §7, §8

[6] = system: human ovarian (A2780) cancer cell line; details: cited from earlier work; for IC50: read-out: IC50 (phototoxicity); for Dark toxicity: A2780, absence of irradiation
[7] = system: A2780, A2780cis and OE19 cancer cell lines; design: method as in PMID 23733242; details: dark; read-out: IC50 in the absence of irradiation; cited from earlier work
[8] = system: cisplatin-resistant ovarian (A2780cis) cancer cell line; details: read-out: IC50 (phototoxicity), cited from earlier work
[9] = system: oesophageal (OE19) cancer cell line; design: method as in PMID 23733242; details: OE19, 420 nm irradiation; read-out: IC50 (phototoxicity); cited from earlier work
[10] = system: oesophageal (OE19) cancer cell line; assay: Phototoxicity / dark cytotoxicity, neutral red uptake assay, OE19; details: for PI (phototoxic index) / IC50: OE19; for PI (phototoxic index): ratio of cytotoxicity following irradiation (420 nm) vs. in the dark; for IC50: read-out: IC50 (phototoxicity), blue light 420 nm, 5 J cm^–2, TL03, filtered <400 nm
Procedure: as §1, §9, §2, §3, §10, §6, §7, §8

[11] = read-out: IC50 (phototoxicity), A2780, blue light 420 nm, 5 J cm^–2, TL03, filtered <400 nm, 1 h treatment, read 24 h after irradiation

Row | Substance | PI (phototoxic index) [1] | IC50 [1] [µM] | PI (phototoxic index) ([2]; A2780) | IC50 [2, 11] [µM] | Maximum aqueous solubility [3] [mM] | Decomposition half-life t1/2 [4] [min] | IC50 [5] [µM] | PI (phototoxic index) [10] | IC50 [10] [µM] | other results
1 | trans,trans,trans-[Pt(N3)2(OH)2(2-picoline)(pyridine)] [Complex 18] | 5.3 ^d | 15.5 | 7.3 ^d | 14.5 | – | – | – | – | – | Phototoxicity, fold less phototoxic than 26 ([2]; A2780, 420 nm): ~7 fold
2 | trans,trans,trans-[Pt(N3)2(OH)2(3-picoline)2] [Complex 23] | >19.3 | 10.4 | >27.8 | 7.2 | 3 | 26 | > 200 | – | – | –
3 | trans,trans,trans-[Pt(N3)2(OH)2(NH2CH3)(thiazole)] | – | – | – | – | – | – | – | – | – | IC50 ([6]; A2780, 420 nm irradiation): 28.2 µM; IC50 [7]: > 233 µM; IC50 ([8]; 420 nm irradiation): 6.4 µM; IC50 [9]: 19.3 µM
4 | trans,trans,trans-[Pt(N3)2(OH)2(4-picoline)(pyridine)] [Complex 20] | >45 | 4.6 | >38 | 5.4 | – | – | > 200 | >17 | 12.3 | Phototoxicity with green light ([10]; OE19, green light 515 nm): no phototoxicity; Phototoxicity with green light ([2]; A2780, green light 515 nm): no phototoxicity
5 | trans,trans,trans-[Pt(OH)2(N3)2(py)2] [Complex 3, reference compound] | – | – | >45 | 6.7 | 34 | 22 | – | >45 | 8.4 | IC50 ([6]; A2780, UVA irradiation): 1.4 µM; Dark toxicity [6]: non-toxic in the absence of irradiation; IC50 ([6]; A2780, visible light 420 nm): 6.7 µM; IC50 ([8]; UVA irradiation): 14.5 µM
6 | trans,trans,trans-[Pt(N3)2(OH)2(NH3)(py)] [FM165, reference compound] | – | – | >9.6 | 25.4 | – | – | – | – | – | Dark toxicity [6]: non-toxic in the absence of irradiation; IC50 ([6]; A2780, visible light 420 nm): 25.4 µM
7 | trans,trans,trans-[Pt(N3)2(OH)2(1-methylimidazole)2] [Complex 32] | >1.3 | 164 | >3.7 | 56.3 | 82 | – | > 200 | – | – | Dark toxicity [5]: non-toxic in the absence of irradiation
8 | trans,trans,trans-[Pt(N3)2(OH)2(3-picoline)(pyridine)] [Complex 19] | >71.0 | 3.3 | >51.5 | 4 | – | – | > 200 | >38 | 5.5 | –
9 | trans,trans,trans-[Pt(N3)2(OH)2(4-picoline)2] [Complex 26] | – | 4.1 | – | 2.1 | – | 25 | > 200 | – | 8.2 | –
10 | trans,trans,trans-[Pt(N3)2(OH)2(thiazole)2] [Complex 29] | >71.0 | 2.9 | – | 2.4 | 1 | 17 | – | >27 | 7.6 | Dark toxicity ([1]; absence of irradiation): no toxicity; also recorded: without any dark toxicity; Dark toxicity ([10]; OE19, absence of irradiation): no toxicity; also recorded: without any dark toxicity; Dark toxicity ([2]; A2780, absence of irradiation): some dark toxicity; IC50 ([2]; read-out: IC50 in the absence of irradiation, A2780, dark): 115 µM; Dark toxicity [5]: toxic towards cells in the absence of irradiation; Phototoxicity, fold greater than thiazole complex (tz, methylamine) ([5]; all three cell lines, 420 nm): at least 2 fold

— paper PMC6844273, “Platinum(IV) dihydroxido diazido N-(heterocyclic)imine complexes are potently photocytotoxic when irradiated with visible light” (Chemical Science, 2019)
